Laboratory results as given in patent US20180125993A1 (BEIJING COTIMES BIOTECH COMPANY LIMITED, priority 2014, published 2018).

What was measured:
[1] = target: T1, DcR2-His (recombinant human TRAIL R4/TNFRSF10D) (Homo sapiens, UniProt Q9UBN6); experiment: Binding specificity by chemiluminescent enzyme immunoassay (CLEIA); settings: antibody 200, 40 and 8 ng/mL; 1 hour, 37° C.
T1 construct: His; purchased Sino Biological
T1 sequence (Q9UBN6 56-386): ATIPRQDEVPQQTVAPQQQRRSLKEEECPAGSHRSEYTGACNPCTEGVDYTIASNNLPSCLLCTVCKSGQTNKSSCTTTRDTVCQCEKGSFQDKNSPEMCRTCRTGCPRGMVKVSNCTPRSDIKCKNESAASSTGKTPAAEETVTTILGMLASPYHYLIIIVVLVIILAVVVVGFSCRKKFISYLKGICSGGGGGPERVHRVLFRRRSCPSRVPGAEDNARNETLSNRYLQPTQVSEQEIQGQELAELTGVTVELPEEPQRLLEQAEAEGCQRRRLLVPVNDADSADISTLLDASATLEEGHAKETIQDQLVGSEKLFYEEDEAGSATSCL
Procedure: (§1) The binding specificity of HuCTB006 was evaluated by chemiluminescent enzyme immunoassay (CLEIA).
(§2) HuCTB006 was diluted into 200, 40 and 8 ng/mL and then added to the wells. After 1 hour incubation in 37° C., the plate was washed. The binding of HuCTB006 with immobilized antigens was detected with HRP labeled secondary antibody and a substrate solution.

[2] = target: T2, DR4-His-EC (Homo sapiens, UniProt O00220); experiment: as above; settings: antibody 200, 40 and 8 ng/mL; 1 hour, 37° C.
T2 construct: His; made in house; host or cells: E. coli
T2 sequence (O00220 24-468): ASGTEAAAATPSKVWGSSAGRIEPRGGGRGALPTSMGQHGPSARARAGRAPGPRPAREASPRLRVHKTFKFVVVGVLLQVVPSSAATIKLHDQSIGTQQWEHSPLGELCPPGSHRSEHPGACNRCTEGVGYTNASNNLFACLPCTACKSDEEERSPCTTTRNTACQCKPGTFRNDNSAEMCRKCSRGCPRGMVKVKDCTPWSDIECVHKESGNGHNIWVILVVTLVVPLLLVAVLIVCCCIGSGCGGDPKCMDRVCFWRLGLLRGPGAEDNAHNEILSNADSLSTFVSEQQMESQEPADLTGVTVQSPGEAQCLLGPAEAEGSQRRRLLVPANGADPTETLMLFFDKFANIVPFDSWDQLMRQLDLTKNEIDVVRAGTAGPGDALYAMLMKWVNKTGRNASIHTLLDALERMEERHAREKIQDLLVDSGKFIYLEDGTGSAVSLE
Procedure: as §1, §2

[3] = target: T3, OPG-His (recombinant human osteroprotegerin/TNFRSF11B) (Homo sapiens, UniProt O00300); experiment: as above; settings: antibody 200, 40 and 8 ng/mL; 1 hour, 37° C.
T3 construct: His; purchased Wuxi Pharmatech Co. Ltd
T3 sequence (O00300 22-401): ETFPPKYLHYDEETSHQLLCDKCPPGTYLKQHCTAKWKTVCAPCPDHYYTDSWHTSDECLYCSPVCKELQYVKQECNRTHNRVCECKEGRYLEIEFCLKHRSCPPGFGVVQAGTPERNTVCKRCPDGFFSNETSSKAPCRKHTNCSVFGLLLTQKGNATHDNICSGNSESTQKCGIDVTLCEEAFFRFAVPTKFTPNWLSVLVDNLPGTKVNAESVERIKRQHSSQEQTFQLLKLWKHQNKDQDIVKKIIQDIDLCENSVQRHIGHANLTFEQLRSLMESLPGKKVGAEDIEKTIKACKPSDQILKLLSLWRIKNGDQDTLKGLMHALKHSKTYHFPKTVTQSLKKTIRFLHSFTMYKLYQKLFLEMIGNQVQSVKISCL
Procedure: as §1, §2

[4] = target: T4, DcR1-His (recombinant human TRAIL R3/TNFRSF10C) (Homo sapiens, UniProt O14798); experiment: as above; settings: antibody 200, 40 and 8 ng/mL; 1 hour, 37° C.
T4 construct: His; purchased Novoprotein Science
T4 sequence (O14798 26-236): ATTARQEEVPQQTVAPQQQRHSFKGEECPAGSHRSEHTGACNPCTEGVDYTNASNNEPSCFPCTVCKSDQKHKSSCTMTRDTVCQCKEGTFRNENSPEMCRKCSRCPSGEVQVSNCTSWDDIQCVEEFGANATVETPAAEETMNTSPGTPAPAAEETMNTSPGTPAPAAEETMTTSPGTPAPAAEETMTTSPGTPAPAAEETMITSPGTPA
Procedure: as §1, §2

[5] = system: colon cancer, CS263, 1#; experiment: Patients primary tumor tissue subcutaneous model (Day 35 after treatment); format: in vivo, nude mice; settings: HuCTB006 10 mg/kg i.v. QW × 4w
From the text: Fresh primary tumor tissues from patients were implanted in NOD/SCID mice's flank, which developed into a primary tumor, which was then transferred to the nude mice's flank to allow the tumor reaching an exponential growth phase, and the tumor was named 1# tumor, and so on. When the tumor volume and number reached passage requirements, they were implanted into the right flank of nude mice. When the tumors' average volumes reached 100-200 mm^3, the mice were grouped.
The bodyweight and major/minor axis of mice were measured twice a week, and Tumor Growth Inhibition (TGI) and tumor volume were calculated same as in 5.1.5. In addition, to evaluate the synergetic effect of drug combination in tumor growth, Jin Zhengjun Q value judgment method was used with the follow formula: Q=Ea+b/(Ea+Eb−Ea×Eb). Ea+b is the inhibition ratio of drug combination, Ea and Eb are the inhibition ratio of each of drug treatment when it is administered alone. […] The animals were monitored, and when the experiments were concluded, mice were sacrificed and tumors were extracted and weighted. All the animal experiments confer to the regulations of animal's welfare and the management of experimental animal usage.
Tumor volumes were represented with average±standard error. Data analysis was done using Spss16.0, One-Way ANOVA, LSD (homogeneity of variance) or Dunnett T3 (non-homogeneity of variance). […] P<0.05 represents significant difference.

- cross-reaction with coated antigen [1]: no cross-reaction
- cross-reaction with coated antigen [2]: no cross-reaction
- cross-reaction with coated antigen [3]: no cross-reaction
- cross-reaction with coated antigen [4]: no cross-reaction
Substance: HuCTB006: Monospecific humanized chimeric monoclonal antibody directed to TRAIL-R2 receptor; heavy chain SEQ ID NO: 14, light chain SEQ ID NO: 12
- T/C % (Calculated using tumor volumes) [5]: 89.71%
- TGI (Calculated using tumor volumes) [5]: 9.42%
- TGI (Calculated using tumor weight) [5]: 16.11%
- Time of tumor volume changed significantly [5]: 13
- Tumor Volume Mean ± SEM [5]: 0.96 ± 0.22 cm^3
- Tumor weight Mean ± SEM [5]: 0.67 ± 0.16 g
- TGI (Calculated using tumor volumes) ([5]; 10 mg/kg): 9.42%
- TGI (Calculated using tumor weight) ([5]; 10 mg/kg): 16.11%
